The record followed here is patent US20250122181A1, “BENZIMIDAZOLES AS MODULATORS OF IL-17” (Janssen Pharmaceutica NV, priority 2021, published 2025).

Usually IC50 stands for the midpoint of a concentration-inhibition curve. Lower therefore signals inhibition by little substance.

In assay [1] the target is T1, IL-17A(FLAG-Tagged): IL-17RA(His-Tagged) (Homo sapiens, UniProt Q16552, K93Q). Briefly: IL-17A(FLAG-Tagged): IL-17RA(His-Tagged) Binding Disruption Eu-HTRF Assay, Protocol 2. The conditions noted are these: Protocol 2, FLAG tagged IL-17A 1 nM; simple average if tested more than once. An excerpt:
An antibody directed against the FLAG tag of IL-17A (SEQ ID NO: 1) is labeled with the HTRF donor chromophore (Europium-cryptate). IL-17A is present as a dimer that is “locked into” this quaternary structure due to the formation of loop-spanning […] disulfide bridges. The construct of IL-17RA used in the assay excludes the […] portion of the receptor and is fused to a C-terminal 10×His tag (SEQ ID NO:2). An antibody directed against the His tag of the IL-17RA chimera is labeled with the HTRF acceptor chromophore (“D2”). The fluorescence-resonance energy transfer (FRET) depends on the vicinity of the donor chromophore to the acceptor, and interruption of the binding between the IL-17A and IL-17RA causes the reduction/loss of FRET. Therefore, this assay allows to evaluate the compound effect on the binding IL-17A and IL-17RA by monitoring the fluorescence intensity of donor vs acceptor. The assay was run using either Protocol 1 or Protocol 2 as described below.
Protocol 2. 40 nl of 2-fold serial diluted compound solution for total 22 dilution points is added into each well of a 1536-well, white, low-volume, non-binding plate (Greiner #782904), then 2 μl of FLAG tagged IL-17A at 2× final concentration (1 nM) in solution of PBS+0.01% Triton-X100 is added to each well. The assay plate is briefly centrifuged then incubated for 1 h at rt. A mixed solution is prepared containing 2×5 nM 10HIS×IL-17RA, 2×2.5 nM Eu-anti-FLAG (CISBIO), 2×5 nM D2-anti-HIS (CISBIO) in PBS+0.01% Triton-X100+200 mM Potassium Fluoride (Sigma 60238) and 2 μl of mix is added to each well of the assay plate. The plate is briefly centrifuged then incubated for 2 h at rt. The HTRF intensities at the wavelength of donor (615 nm) and acceptor (665 nm) are measured using BMG Pherastar. The ratio between intensities at two wavelengths is calculated and plotted against the compound concentration and the data is fitted to a one-site competition model to yield IC50 of the compound.
On the technique in general: TR-FRET usually uses a lanthanide donor and a delayed reading to cut background.

Assay [2] concerns IL-17A-induced G-CSF production in human normal keratinocyte (NHK). The assay is described as follows: NHK Assay: IL-17A-induced G-CSF production in human normal keratinocyte. The class given is cell-based. Conditions: Homo sapiens, Keratinocyte, 24 h, IL-17A 5 ng/mL, simple average if tested more than once. The method, boiled down: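 Stimulus rhIL-17A 5 ng/mL final, premixed 1 h rt with compound; adult NHK, 5% FBS, 0.2% DMSO. Viability by CellTiter-Glo vs DMSO.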

For assay [3], the target named is T1, IL-17A(FLAG-Tagged): IL-17RA(His-Tagged). The assay is described as follows: IL-17A(FLAG-Tagged): IL-17RA(His-Tagged) Binding Disruption Eu-HTRF Assay, Protocol 1. Conditions: Protocol 1, FLAG tagged IL-17A 2.5 nM; simple average if tested more than once. The method, boiled down:
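IC50 came from a one-site competition fit of the acceptor/donor (665/620 nm) HTRF ratio. His-tagged IL-17RA, Eu-anti-FLAG and D2-anti-His were added after a 1 h rt compound preincubation with FLAG-tagged IL-17A dimer in PBS/0.01% Triton X-100, followed by 2 h at rt before reading.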

T1 sequence (Q16552 with tags, fused parts or gaps K93Q): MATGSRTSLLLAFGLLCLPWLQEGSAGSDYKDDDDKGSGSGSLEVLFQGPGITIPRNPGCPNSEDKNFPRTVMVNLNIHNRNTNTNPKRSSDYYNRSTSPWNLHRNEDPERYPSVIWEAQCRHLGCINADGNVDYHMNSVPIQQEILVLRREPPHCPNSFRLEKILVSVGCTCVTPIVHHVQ

On to `COC[C@H](c1ccc2[nH]c(C(NC(=O)c3nonc3C)[C@@H](C)OC(C)(C)C(F)(F)F)nc2c1)N1C[C@@H](C(F)(F)F)NC1=O` (single isomer, unassigned) [Example 74, N-[(1R*,2R)-1-[5-[(1S)-2-Methoxy-1-[(4S)-2-oxo-4-(trifluoromethyl)imidazolidin-1-yl]ethyl]-1H-benzimidazol-2-yl]-2-(2,2,2-trifluoro-1,1-dimethyl-ethoxy)propyl]-4-methyl-1,2,5-oxadiazole-3-carboxamide], for which the half-inhibitory concentration (IC50) in assay [1] and in assay [2] was less than 50 nM throughout.
On to `[2H]C([2H])([2H])C([2H])([2H])n1nccc1C(=O)N[C@@H](COC(C)(C)C(F)(F)F)c1nc2cc([C@@H](C3CC3)N3C[C@@H](C(F)(F)F)NC3=O)ccc2[nH]1` [Example 4, N—((R)-1-(5-((R)-Cyclopropyl((S)-2-oxo-4-(trifluoromethyl)imidazolidin-1-yl)methyl)-1H-benzo[d]imidazol-2-yl)-2-((1,1,1-trifluoro-2-methylpropan-2-yl)oxy)ethyl)-1-(ethyl-d5)-1H-pyrazole-5-carboxamide], for which the IC50 in assay [3] and in assay [2] was less than 50 nM each time.
In the case of `CC(C)n1ncnc1C(=O)N[C@@H](COC(C)(C)C(F)(F)F)c1nc2cc([C@@H](C3CC3)N3C[C@@H](C(F)(F)F)NC3=O)ccc2[nH]1` [Example 5, N—((R)-1-(5-((R)-Cyclopropyl((S)-2-oxo-4-(trifluoromethyl)imidazolidin-1-yl)methyl)-1H-benzo[d]imidazol-2-yl)-2-((1,1,1-trifluoro-2-methylpropan-2-yl)oxy)ethyl)-1-isopropyl-1H-1,2,4-triazole-5-carboxamide], the IC50 in assay [3] and in assay [2] was less than 50 nM each time.
Consider `CC(C)(OC[C@H](NC(=O)c1nonc1C1CC1)c1nc2cc([C@@H](C3CC3)N3CC(F)(F)CNC3=O)ccc2[nH]1)C(F)(F)F` [Example 22, 4-Cyclopropyl-N—((R)-1-(5-((R)-cyclopropyl(5,5-difluoro-2-oxotetrahydropyrimidin-1(2H)-yl)methyl)-1H-benzo[d]imidazol-2-yl)-2-((1,1,1-trifluoro-2-methylpropan-2-yl)oxy)ethyl)-1,2,5-oxadiazole-3-carboxamide], for which the half-inhibitory concentration (IC50) in assay [3] and in assay [2] was less than 50 nM throughout.
For `Cc1nonc1C(=O)N[C@@H](COC(C)(C)C(F)(F)F)c1nc2cc([C@@H](C3CC3)N3CC(F)(F)CNC3=O)ccc2[nH]1` [Example 23, N—((R)-1-(5-((R)-Cyclopropyl(5,5-difluoro-2-oxotetrahydropyrimidin-1(2H)-yl)methyl)-1H-benzo[d]imidazol-2-yl)-2-((1,1,1-trifluoro-2-methylpropan-2-yl)oxy)ethyl)-4-methyl-1,2,5-oxadiazole-3-carboxamide], the IC50 in assay [3] and in assay [2] was less than 50 nM in each case.
Turning to `CC(C)n1nccc1C(=O)N[C@@H](COC(C)(C)C(F)(F)F)c1nc2cc([C@@H](C3CC3)N3CC(F)(F)CNC3=O)ccc2[nH]1` [Example 24, N—((R)-1-(5-((R)-Cyclopropyl(5,5-difluoro-2-oxotetrahydropyrimidin-1(2H)-yl)methyl)-1H-benzo[d]imidazol-2-yl)-2-((1,1,1-trifluoro-2-methylpropan-2-yl)oxy)ethyl)-1-isopropyl-1H-pyrazole-5-carboxamide], the IC50 in assay [3] and in assay [2] was less than 50 nM each time.
On to `Cc1nonc1C(=O)N[C@@H](COC(C)(C)C(F)(F)F)c1nc2ccc(CN3CC(F)(F)CNC3=O)cc2[nH]1` [Example 28, (R)—N-(1-(6-((5,5-Difluoro-2-oxotetrahydropyrimidin-1(2H)-yl)methyl)-1H-benzo[d]imidazol-2-yl)-2-((1,1,1-trifluoro-2-methylpropan-2-yl)oxy)ethyl)-4-methyl-1,2,5-oxadiazole-3-carboxamide], for which the IC50 in assay [3] and in assay [2] was less than 50 nM each time.
Consider `CC(C)n1nccc1C(=O)N[C@@H](COC(C)(C)C(F)(F)F)c1nc2ccc(CN3CC(F)(F)CNC3=O)cc2[nH]1` [Example 29, (R)—N-(1-(6-((5,5-Difluoro-2-oxotetrahydropyrimidin-1(2H)-yl)methyl)-1H-benzo[d]imidazol-2-yl)-2-((1,1,1-trifluoro-2-methylpropan-2-yl)oxy)ethyl)-1-isopropyl-1H-pyrazole-5-carboxamide], for which the IC50 in assay [3] and in assay [2] was less than 50 nM in each case.
Consider `CC(C)(OC[C@H](NC(=O)c1nonc1C1CC1)c1nc2ccc(CN3CC(F)(F)CNC3=O)cc2[nH]1)C(F)(F)F` [Example 30, (R)-4-Cyclopropyl-N-(1-(6-((5,5-difluoro-2-oxotetrahydropyrimidin-1(2H)-yl)methyl)-1H-benzo[d]imidazol-2-yl)-2-((1,1,1-trifluoro-2-methylpropan-2-yl)oxy)ethyl)-1,2,5-oxadiazole-3-carboxamide], for which the concentration for half-maximal inhibition (IC50) in assay [3] and in assay [2] was less than 50 nM in each case.
For the molecule `COC[C@H](c1ccc2[nH]c([C@@H](NC(=O)c3nonc3C)[C@@H](C)O[C@@H](C)C(F)(F)F)nc2c1)N1CC(F)(F)CNC1=O` [Example 50, N-((1R,2R)-1-(5-((S)-1-(5,5-Difluoro-2-oxotetrahydropyrimidin-1(2H)-yl)-2-methoxyethyl)-1H-benzo[d]imidazol-2-yl)-2-(((S)-1,1,1-trifluoropropan-2-yl)oxy)propyl)-4-methyl-1,2,5-oxadiazole-3-carboxamide], the IC50 in assay [3] and in assay [2] was less than 50 nM each time.
Consider `COC[C@H](c1ccc2[nH]c([C@@H](NC(=O)c3nonc3C)[C@@H](C)O[C@@H](C)C(F)(F)F)nc2c1)N1C[C@@H](C(F)(F)F)NC1=O` [Example 62, N-((1R,2R)-1-(5-((S)-2-Methoxy-1-((S)-2-oxo-4-(trifluoromethyl)imidazolidin-1-yl)ethyl)-1H-benzo[d]imidazol-2-yl)-2-(((S)-1,1,1-trifluoropropan-2-yl)oxy)propyl)-4-methyl-1,2,5-oxadiazole-3-carboxamide], for which the IC50 in assay [3] and in assay [2] was less than 50 nM each time.
On to `Cc1nonc1C(=O)N[C@@H](COC(C)(C)C(F)(F)F)c1nc2cc([C@@H](C3CC3)N3C[C@@H](C4CC4)NC3=O)ccc2[nH]1` [Example 84, N—((R)-1-(5-((R)-Cyclopropyl((R)-4-cyclopropyl-2-oxoimidazolidin-1-yl)methyl)-1H-benzo[d]imidazol-2-yl)-2-((1,1,1-trifluoro-2-methylpropan-2-yl)oxy)ethyl)-4-methyl-1,2,5-oxadiazole-3-carboxamide], for which the IC50 in assay [3] and in assay [2] was less than 50 nM throughout.
Regarding `CC(C)n1nccc1C(=O)N[C@H](c1nc2c(F)cc([C@@H](C3CC3)N3C[C@@H](C(F)(F)F)NC3=O)cc2[nH]1)[C@@H](C)O[C@H](C)C(F)(F)F` [Example 85, N-[(1R,2R)-1-[6-[(R)-Cyclopropyl-[(4S)-2-oxo-4-(trifluoromethyl)imidazolidin-1-yl]methyl]-4-fluoro-1H-benzimidazol-2-yl]-2-[(1R)-2,2,2-trifluoro-1-methyl-ethoxy]propyl]-2-isopropyl-pyrazole-3-carboxamide], the IC50 was 50 to 100 nM in assay [3] and less than 50 nM in assay [2].
On to `Cc1nonc1C(=O)N[C@@H](COC(C)(C)C(F)(F)F)c1nc2cc([C@@H](C3CC3)N3CC4(CC4)NC3=O)ccc2[nH]1` [Example 87, N—((R)-1-(5-((R)-Cyclopropyl(5-oxo-4,6-diazaspiro[2.4]heptan-6-yl)methyl)-1H-benzo[d]imidazol-2-yl)-2-((1,1,1-trifluoro-2-methylpropan-2-yl)oxy)ethyl)-4-methyl-1,2,5-oxadiazole-3-carboxamide], for which the IC50 in assay [3] and in assay [2] was less than 50 nM each time.
